Test results taken from US6737383B1, “Herbicidal oxadiazolidines” (priority 1999, dated 2004).

Tests used:
barnyardgrass = assay: Test A barnyardgrass; assay type: in vivo, Echinochloa crus-galli; conditions: 0 to 10 scale where 0 is no effect and 10 is complete control
Method in brief: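 Ratings came from visual comparison with untreated plants about eleven days after treatment, scored 0 for no effect through 10 for complete control. Both soil-drench preemergence and runoff-spray postemergence applications were made at the same time.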

dallisgrass = assay: Test D dallisgrass; assay type: in vivo, Paspalum dilatatum; conditions: Postemergence, 0 to 100 scale
Johnson grass = assay: Test D Johnson grass; assay type: in vivo, Sorghum halepense; conditions: Postemergence, 0 to 100 scale
Green foxtail = assay: Test D green foxtail; assay type: in vivo; conditions: Rate 250 g/ha; Postemergence; 0 to 100 scale
[1] = Rate 64 g/ha, 0 no injury, 100 complete control
[2] = Rate 16 g/ha, 0 no injury, 100 complete control
[3] = Rate 32 g/ha, 0 no injury, 100 complete control
[4] = Rate 125 g/ha, 0 no injury, 100 complete control

SMILES	Plant response rating, Barnyardgrass (barnyardgrass; Postemergence, Rate 1000 g/ha)	Plant response rating, Barnyardgrass (barnyardgrass; Pre-emergence, Rate 2000 g/ha)	Plant response rating, Dallisgrass (dallisgrass; [1])	Plant response rating, Johnsongrass (Johnson grass; [1])	Plant response rating, Green foxtail (Green foxtail)	Plant response rating, Dallisgrass (dallisgrass; [2])	Plant response rating, Dallisgrass (dallisgrass; [3])	Plant response rating, Dallisgrass (dallisgrass; [4])	Plant response rating, Dallisgrass (dallisgrass; Rate 250 g/ha)	Plant response rating, Johnsongrass (Johnson grass; [2])	Plant response rating, Johnsongrass (Johnson grass; [3])	Plant response rating, Johnsongrass (Johnson grass; [4])	Plant response rating, Johnsongrass (Johnson grass; Rate 250 g/ha)
CCN(CC)C(=O)n1oc(=O)n(-c2ccc(OC)cc2)c1=O [Compound 1]	8	9	–	–	–	–	–	–	–	–	–	–	–
Cc1ccccc1-n1c(=O)on(C(=O)N(C2=CCOCC2)C(C)C)c1=O [Compound 10]	9	10	–	–	–	–	–	–	–	–	–	–	–
CC(C)Oc1cc(-n2c(=O)on(C(=O)N(c3ccc(F)cc3)C(C)C)c2=O)c(Cl)cc1Cl [Compound 43]	0	0	–	–	–	–	–	–	–	–	–	–	–
CC(C)N(C(=O)n1oc(=O)n(C2CCCCC2C(F)(F)F)c1=O)c1ccc(F)cc1 (stereo not shown) [Compound 99]	7	9	–	–	–	–	–	–	–	–	–	–	–
CC(C)Cn1c(=O)on(C(=O)N(c2ccc(F)cc2)C(C)C)c1=O [Compound 169]	–	–	90	0	–	–	–	–	–	–	–	–	–
CC(C)N(C(=O)n1oc(=O)n(C2CC2)c1=O)c1ccc(Cl)cc1 [Compound 241]	–	–	50	0	100	0	40	90	100	80	0	0	0
CC(C)N(C(=O)n1oc(=O)n(C2CCC2)c1=O)c1ccccc1 [Compound 348]	–	–	90	0	100	0	50	100	100	0	0	20	90
CC(C)N(C(=O)n1oc(=O)n(C2CCC2)c1=O)c1ccc(Cl)cc1 [Compound 349]	–	–	0	0	100	0	0	60	90	0	0	10	40
